Where a name gives a salt, the structure may show the parent alone.
Key:
[1] = molecular target: wildtype Keap1 (tag-free) (Homo sapiens, UniProt Q14145); test: Keap1 tracer saturation binding with wildtype Keap1; settings: fixed Cora-1-KL9 (5 nM) and wildtype Keap1, one-site binding model
Keap1 (tag-free) [2] = molecular target: T1, Keap1 (tag-free) (Homo sapiens, UniProt Q14145); test: Assay-2: inhibitor dose response, full length Keap1; type: binding; settings: for activity in Assay-2 (in words): 5 nM Cora-1-KL9, 150 nM CDDO-FITC, 5 nM Keap1
Keap1 (tag-free) [3] = molecular target: T1, Keap1 (tag-free); test: Assay-1: inhibitor dose response, full length Keap1; type: binding; settings: 5 nM Keap1, 3.5 nM each KL9 tracer, 4 h
[4] = molecular target: HDAC1-HT in HEK293T cells (Homo sapiens, UniProt Q13547); type: cell-based; settings: Cora-2-Halo labeled HEK293T cells expressing HDAC1-HT, 4 h at 37°C
Chain of HDAC1-HT in HEK293T cells (Q13547 whole entry): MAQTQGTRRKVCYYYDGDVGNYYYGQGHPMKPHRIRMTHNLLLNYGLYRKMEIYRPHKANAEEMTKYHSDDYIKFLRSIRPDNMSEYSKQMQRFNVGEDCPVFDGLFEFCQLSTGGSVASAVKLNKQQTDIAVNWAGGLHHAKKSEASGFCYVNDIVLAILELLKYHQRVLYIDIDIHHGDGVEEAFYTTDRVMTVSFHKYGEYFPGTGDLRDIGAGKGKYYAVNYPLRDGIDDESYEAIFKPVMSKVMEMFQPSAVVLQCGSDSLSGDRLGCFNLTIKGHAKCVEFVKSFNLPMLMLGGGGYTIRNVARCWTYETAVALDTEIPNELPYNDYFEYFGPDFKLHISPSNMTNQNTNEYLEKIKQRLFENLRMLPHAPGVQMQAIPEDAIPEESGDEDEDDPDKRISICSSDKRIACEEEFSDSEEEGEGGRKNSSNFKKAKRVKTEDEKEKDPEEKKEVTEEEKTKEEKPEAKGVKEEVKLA

T1 sequence (Q14145 whole entry): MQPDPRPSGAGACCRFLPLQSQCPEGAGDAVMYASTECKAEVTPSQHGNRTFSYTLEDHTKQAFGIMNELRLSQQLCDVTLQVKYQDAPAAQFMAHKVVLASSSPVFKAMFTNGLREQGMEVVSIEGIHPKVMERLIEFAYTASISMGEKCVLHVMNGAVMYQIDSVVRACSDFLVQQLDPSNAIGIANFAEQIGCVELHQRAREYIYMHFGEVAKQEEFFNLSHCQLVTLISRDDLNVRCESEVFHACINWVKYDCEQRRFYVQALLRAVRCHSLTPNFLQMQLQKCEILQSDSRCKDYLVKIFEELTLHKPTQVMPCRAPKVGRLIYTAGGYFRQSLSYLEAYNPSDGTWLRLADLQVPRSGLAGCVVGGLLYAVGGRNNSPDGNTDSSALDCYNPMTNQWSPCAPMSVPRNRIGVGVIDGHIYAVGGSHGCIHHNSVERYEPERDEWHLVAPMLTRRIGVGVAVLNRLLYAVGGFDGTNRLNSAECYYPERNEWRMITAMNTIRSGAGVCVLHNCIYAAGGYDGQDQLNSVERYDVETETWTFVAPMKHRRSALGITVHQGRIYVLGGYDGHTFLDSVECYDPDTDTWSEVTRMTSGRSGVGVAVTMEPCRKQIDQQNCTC
Chain of wildtype Keap1 (tag-free) (Q14145 whole entry): as above

affinity in Assay-1 (no appreciable affinity below) (Keap1 (tag-free) [3]) [µM]	activity in Assay-1 (in words) (Keap1 (tag-free) [3])	SMILES	also measured
–	–	CC1(C)CC[C@]2(C(=O)NCCCOCCOCCOCCCNC(=S)Nc3ccc(-c4c5ccc(=O)cc-5oc5cc(O)ccc45)c(C(=O)O)c3)CC[C@]3(C)[C@H](C(=O)C=C4[C@@]5(C)C=C(C#N)C(=O)C(C)(C)[C@@H]5CC[C@]43C)[C@@H]2C1 [CDDO-FITC]	Kd [1]: 164 ± 37.1 nM
> 100	–	Cc1sc2c(c1C)C(c1ccc(Cl)cc1)=NC(CC(=O)NCCCOCCOCCOCCCNC(=O)[C@]13CCC(C)(C)C[C@H]1[C@H]1C(=O)C=C4[C@@]5(C)C=C(C#N)C(=O)C(C)(C)[C@@H]5CC[C@@]4(C)[C@]1(C)CC3)c1nnc(C)n1-2 (some centres unmarked) [CDDO-JQ1]	fold less potent than CDDO (Keap1 (tag-free) [2]; Assay-2): > 500 fold
> 100	–	COC(=O)[C@]12CCC(C)(C)C[C@H]1[C@H]1C(=O)C=C3[C@@]4(C)C=C(C#N)C(=O)C(C)(C)[C@@H]4CC[C@@]3(C)[C@]1(C)CC2 [CDDO-Me, bardoxolone methyl]	activity in Assay-2 (in words) (Keap1 (tag-free) [2]): most potent competitors of CDDO-FITC
–	micromolar activity	CC1(C)CC[C@]2(C(=O)O)CC[C@]3(C)[C@H](C(=O)C=C4[C@@]5(C)C=C(C#N)C(=O)C(C)(C)[C@@H]5CC[C@]43C)[C@@H]2C1 [CDDO]	activity in Assay-2 (in words) (Keap1 (tag-free) [2]): most potent competitors of CDDO-FITC
–	micromolar activity	COC1=CC(=O)C(O)=C/C1=C\C=C\c1ccccc1 [OBT, obtusaquinone]	–
–	–	O=C(CCCCCCC(=O)Nc1ccc(CNC(=O)c2ccc(C(=O)O)c(C3=c4cc5c6c(c4Oc4c3cc3c7c4CCCN7CCCC3)CCC[N+]=6CCCC5)c2)cc1)NO [SAHA-NCT]	TR-FRET signal in live cells / cell permeability (in words) [4]: specific and ligand concentration-dependent TR-FRET signal
> 100	–	COC(=O)/C=C/C(=O)OC [dimethyl fumarate]	–

SMILES	affinity in Assay-1 (no appreciable affinity below) (Keap1 (tag-free) [3]) [µM]	activity in Assay-1 (in words) (Keap1 (tag-free) [3])	also measured
CC1=C(O)C(=O)C=C2C1=CC=C1[C@@]2(C)CC[C@@]2(C)[C@@H]3C[C@](C)(C(=O)O)CC[C@]3(C)CC[C@]12C [celastrol]	–	micromolar activity	–

Reference: publication PMC8555866 (Nature chemical biology, 2021)
